Article PMC12297304, “Molecular networking derived from untargeted LC-MS/MS analysis to discover inhibitors of RANKL-induced osteoclastogenesis from Egyptian marine sponge-associated fungi” (Scientific Reports, 2025)
“Also recorded” adds a separate entry of the source.

Tests used:
[1] = system: RANKL-induced formation of MNCs from RAW264 macrophages; experiment: Multinucleated TRAP+ve osteoclast (MNCs) counting assay; type: cell-based, murine; settings: Mus musculus, RAW264.7, 96 h; RAW264 cells, RANKL 50 ng/mL, 4 days; read-out: IC50, inhibition of RANKL-induced formation of multinucleated osteoclasts (MNCs)
Method: EtOAc fractions of all fungal CH3OH extracts were tested for their ability to inhibit TRAP activity and the formation of multinucleated osteoclasts (MNCs) in RANKL-treated RAW264 macrophages as previously reported[7],[24]. Briefly, RAW264 cells (RIKEN Cell Bank, Tsukuba) were cultured in MEMα medium supplemented with 10% heat-inactivated fetal bovine serum and 1% penicillin/streptomycin and incubated at 37 °C in a 5% CO2 humidified atmosphere in two 96-well plates at a density of 1000 and 6000 cells/well, for TRAP assay and MNCs staining assay, respectively. Samples were then added at a concentration of 50 and 20 µg/mL for extracts, 50, 20, and 10 µM for pure compounds, and 83 µM for the standard quercetin. […]
Following a 4-day incubation period, the differentiated cells were fixed with 4% paraformaldehyde solution (Sigma–Aldrich, USA), washed with PBS, and stained using a TRAP-staining solution, which consisted of 50 mM sodium tartrate, 45 mM sodium acetate, 0.1 mg/mL naphthol AS-MX phosphate (Sigma– Aldrich, USA), and 0.6 mg/mL fast red violet LB salt (Sigma–Aldrich, USA), pH 5.2, for 1 h or longer at room temperature. TRAP-positive cells, that stained red and contained 3 or more nuclei were determined to be multinuclear osteoclasts and were quantified in each well by counting MNCs in 8 fields/well using a light microscope.

RAW264 macrophages = experiment: MTT cytotoxicity assay; type: cell-based, murine; settings: at the highest tested concentration
Method: After incubation of cells for one day, media was aspired and replaced with new one supplemented with treatments, whereas controls contained only DMSO. Cells were then kept at 37 °C for three days. Finally, 50 µL of 3-(4,5-dimethylthiazol-2-yl)−2,[…] bromide (MTT) solution (150 µg/mL in medium) was added after aspiration of medium, incubated under the same conditions for 3 h. Then 200 µL of DMSO were added to each well, after removal of the reaction solution, to dissolve the formed formazan salt crystals, and optical density was measured at 570 nm with a microplate reader.

Row | SMILES | IC50 [1] | Toxic effect against RAW264 macrophages (RAW264 macrophages)
1 | COCC(O)COc1ccc(C(C)(C)c2ccc(OCC(O)COC)cc2)cc1 (stereo not shown) [Compound 1, 2,2-bis‐[4‐(2‐hydroxy-3-methoxy-propoxy)phenyl]propane] | 57.1 µM | without cytotoxicity; also recorded: no toxic effect
2 | COc1cc(O)c2c(c1)C1=CC(O)C(O)CC1(C)OC2=O (stereo not shown) [Compound 8, altenuene] | 38.4 µM | without cytotoxicity; also recorded: no toxic effect
